Drawing on BindingDB's records for doi:10.1021/jm800503y (University of Queensland, 2008), this text covers IC50 and Ki for 2 molecules.

SMILES strings stand for the structures.

The test has as its target T1, Genome polyprotein [1424-1463]/[1502-1685] (West Nile virus, UniProt P06935).
T1 construct: 1424-1463; 1502-1685
T1 sequence (P06935 whole entry) 1: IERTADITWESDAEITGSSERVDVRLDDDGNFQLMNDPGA
T1 sequence (P06935 whole entry) 2: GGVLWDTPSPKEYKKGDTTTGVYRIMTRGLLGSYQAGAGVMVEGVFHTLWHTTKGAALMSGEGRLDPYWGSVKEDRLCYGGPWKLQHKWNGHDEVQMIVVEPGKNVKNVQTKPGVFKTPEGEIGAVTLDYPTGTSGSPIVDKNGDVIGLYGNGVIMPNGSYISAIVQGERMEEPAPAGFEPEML
Put plainly: In Vitro Enzyme Inhibition. Particulars: pH 9.5; 37 °C. As to the method:
Inhibition of WNV protease activity was measured using recombinant WNV protease, which first incubated with inhibitor in 96-well plates. Catalysis was initiated by adding the substrate. Cleavage of the pNA chromophore from substrate produced a color change monitored at 405 nm. Optical density was measured every 30 s for 10 min by a Spectromax 250 reader, and Ki values were determined by Graphpad Prism.

The IC50 is the concentration that gives 50% inhibition. Read a low IC50 as higher potency. As usually defined, the Ki is a dissociation constant, usually derived from enzyme kinetics or from competition with a known ligand. `NCCCC[C@H](NC(=O)C=Cc1ccccc1)C(=O)N[C@@H](CCCCN)C(=O)N[C@H](C=O)CCCN=C(N)N` [(2S)-6-amino-2-[(2S)-6-amino-2-[(2E)-3-phenylprop-2-enamido]hexanamido]-N-[(2S)-5-carbamimidamido-1-oxopentan-2-yl]hexanamide] had an IC50 of 580 nM and an inhibition constant (Ki) of 104 nM.
The matching figures for `COc1ccc2cc([C@H](C)C(=O)N[C@@H](CCCCN)C(=O)N[C@@H](CCCCN)C(=O)N[C@H](C=O)CCCN=C(N)N)ccc2c1` [(2S)-6-amino-N-[(1S)-5-amino-1-{[(2S)-5-carbamimidamido-1-oxopentan-2-yl]carbamoyl}pentyl]-2-[(2S)-2-(6-methoxynaphthalen-2-yl)propanamido]hexanamide]: 112 nM and 20 nM.
